Results taken from patent publication US20240293513A1, “USE OF MAZDUTIDE” (INNOVENT BIOLOGICS (SUZHOU) CO., LTD., priority 2021, published 2024).

Assays:
uric acid = experiment: Change in uric acid from baseline in subjects with type 2 diabetes; format: in vivo, human; details: 1.5 mg QW for 12 weeks, day 85 post-dose vs baseline, N = 6
Method: FIG. 3 illustrates the change in uric acid from baseline after administration in subjects with diabetes.
(§1) In this study, the enrollment of 42 patients with type 2 diabetes with uncontrolled glycosylated hemoglobin despite at least 2 months of lifestyle intervention or treatment with a stable dose of metformin (≥1000 mg/day or the maximum tolerated dose). Three cohorts were included in this study: cohort 1 (n=14), cohort 2 (n=14), and cohort 3 (n=14). Subjects in each cohort were randomized in an 8:4:2 ratio into the mazdutide treatment group (n=8), the placebo group (n=4), and the dulaglutide 1.5 mg treatment group (n=2). In cohorts 1, 2, and 3, the active control drug, dulaglutide, was administered at 1.5 mg QW for 12 weeks, and the dosing regimens for mazdutide and placebo are described below:
(§2) Cohort 1: Subjects were administered with a starting dose of 1.0 mg once weekly for 4 weeks. If the treatment was well tolerated*, the dose was adjusted to 2.0 mg, and was administered once weekly for 4 weeks. If the treatment was well tolerated*, the dose was adjusted to 3.0 mg, and was administered once weekly for 4 weeks. (ascending at a rate of 1 mg/4 weeks to the target dose).
(§3) Cohort 2: Subjects were administered with a starting dose of 1.5 mg once weekly for 4 weeks.
If the treatment was well tolerated*, the dose was adjusted to 3.0 mg, and was administered once weekly for 4 weeks. […]

[1] = Stability of the drug substance; format: physicochemical; details: ≤−20° C.
healthy subjects = experiment: Single dose study in healthy subjects (18P-MC-OXAA), safety and tolerability; format: in vivo, human
Method: In another aspect of the present invention, provided is a pharmaceutical composition for reducing a uric acid level in a patient, comprising a compound of formula (I) or a pharmaceutically acceptable salt thereof, and at least one pharmaceutically acceptable carrier.
A single dose study in healthy subjects (18P-MC-OXAA): a single center, double-blind, randomized, placebo-controlled SAD study has been completed (ascending doses of 0.03 mg, 0.1 mg, 0.3 mg, 1.0 mg, 2.5 mg, and 5.0 mg), which mainly assessed the safety, tolerability, and PK/PD profile of mazdutide in healthy subjects.

[2] = Solubility of the investigational product; format: physicochemical; details: 20 mM tris(hydroxymethyl)aminomethane solutions and 150 mM NaCl solutions with pH 8.0
[3] = system: patients with obesity or overweight; experiment: Safety assessment in patients with obesity or overweight (12-week dose escalation); format: in vivo, human
Method: (§4) Mazdutide and placebo were both administered subcutaneously once weekly. The doses were prepared and administered by study nurses according to the manual instructions of the study drugs. • 1.5 Inclusion criteria
I. Subjects with obesity or overweight meeting all of the following criteria were included in the study: • 1. Aged 18-75 years (inclusive), male or female: • 2. For obesity, BMI≥28.0 kg/m^2: for overweight, 24≤ BMI<28.0 kg/m^2 with at least one of the following: i, increased appetite, intolerable hunger before meals, and increased food consumption: ii, comorbidity with one or more of pre-diabetes (impaired fasting glucose and/or impaired glucose tolerance), hypertension, dyslipidemia (see appendix 4 for reference criteria), and fatty liver (within 6 months before the screening); iii, comorbidity with weight-bearing joint pain: iv, obesity-related dyspnea or obstructive sleep apnea syndrome: • 3. Weight change<5% after at least 12 weeks of diet/exercise weight control at the time of screening
In this study, the enrollment of 36 patients with overweight or obesity having a weight change of less than 5% after at least 12 weeks of diet/exercise control was planned. Three cohorts were included in this double-blind study: cohort 1 (n=12), cohort 2 (n=12), and cohort 3 (n=12). Subjects in each cohort were randomized in a 2:1 ratio into the mazdutide treatment group (n=8) and the placebo group (n=4). The subcutaneous dosing regimens for mazdutide or placebo in cohort 1, cohort 2 and cohort 3, are described below (as shown in FIG. 1):
as §2
Cohort 2: Subjects were administered with a starting dose of 1.5 mg once weekly for 4 weeks. If the treatment was well tolerated*, the dose was adjusted to 3.0 mg, and was administered once weekly for 4 weeks. If the treatment was well tolerated*, the dose was adjusted to 4.5 mg, and was administered once weekly for 4 weeks (ascending at a rate of 1.5 mg/4 weeks to the target dose).
Cohort 3: Treatment in cohort 3 was started when the 4-week treatment at 1.5 mg was completed and well tolerated in the subjects in cohort 2: if 1.5 mg was not tolerated in cohort 2, 2.0 mg and higher doses were not investigated in cohort 3. In this cohort, subjects were administered with a starting dose of 2.0 mg once weekly for 4 weeks. If the treatment was well tolerated*, the dose was adjusted to 4.0 mg, and was administered once weekly for 4 weeks. If the treatment was well tolerated*, the dose was adjusted to 6.0 mg, and was administered once weekly for 4 weeks. (ascending at a rate of 2 mg/4 weeks to the target dose).
For patients with obesity or overweight: By Mar. 15, 2021, 36 subjects were enrolled and 36 were included in the analysis. […] Only 2 patients in cohort 1 had mild urticaria. […] The gastrointestinal events occurred at a higher rate in the treatment group than in the placebo group, which complies with the mechanism of action of the drug.

patients with diabetes = experiment: Safety assessment in patients with type 2 diabetes (12-week dose escalation); format: in vivo, human
Method: as §4, §1, §2, §3
If the treatment was well tolerated*, the dose was adjusted to 3.0 mg, and was administered once weekly for 4 weeks. If 3.0 mg was not well tolerated but still met the tolerance criteria, the next dose was investigated in cohort 2 (backup 1): if the dose was well tolerated, the study proceeded to 4.5 mg. The treatment was given once weekly for 4 weeks, if 4.5 mg was not well tolerated but still met the tolerance criteria, the next dose was investigated in cohort 2 (backup 2). (ascending at a rate of 1.5 mg/4 weeks to the target dose).
Cohort 2 (backup 2): If 4.5 mg was not tolerated, the treatment should be discontinued for 1 week and resumed at the dose of 3.75 mg for 2 weeks until the end of study. […]

Dulaglutide
Uric acid Mean of change (uric acid): 16.67 µmol/L

CC(C)C[C@H](NC(=O)[C@H](CC(C)C)NC(=O)[C@H](Cc1c[nH]c2ccccc12)NC(=O)[C@H](CCC(=O)O)NC(=O)[C@@H](NC(=O)[C@H](Cc1ccccc1)NC(=O)[C@H](CCC(=O)O)NC(=O)[C@H](CCCCNC(=O)COCCOCCNC(=O)COCCOCCNC(=O)CC[C@H](NC(=O)CCCCCCCCCCCCCCCCCCC(=O)O)C(=O)O)NC(=O)[C@H](C)NC(=O)[C@H](CCCCN)NC(=O)[C@H](CCCCN)NC(=O)[C@H](CCC(=O)O)NC(=O)[C@H](CC(=O)O)NC(=O)[C@H](CC(C)C)NC(=O)[C@H](Cc1ccc(O)cc1)NC(=O)[C@H](CCCCN)NC(=O)[C@H](CO)NC(=O)[C@H](Cc1ccc(O)cc1)NC(=O)[C@H](CC(=O)O)NC(=O)[C@H](CO)NC(=O)[C@@H](NC(=O)[C@H](Cc1ccccc1)NC(=O)[C@@H](NC(=O)CNC(=O)[C@H](CCC(N)=O)NC(=O)C(C)(C)NC(=O)[C@@H](N)Cc1c[nH]cn1)[C@@H](C)O)[C@@H](C)O)C(C)C)C(=O)N[C@@H](CCC(=O)O)C(=O)NCC(=O)NCC(=O)N1CCC[C@H]1C(=O)N[C@@H](CO)C(=O)N[C@@H](CO)C(=O)NCC(N)=O [mazdutide]
Stability [1]: The drug substance is stable at ≤−20 °C | tolerability (healthy subjects; healthy subjects, dose ascended to 2.5 mg): tolerated | subjects with gastrointestinal-related AEs (mainly nausea and vomiting) (healthy subjects; healthy subjects, dose ascended to 5 mg): 6 subjects | maximum tolerated dose (MTD) for single-dose administration (healthy subjects; healthy subjects, single ascending doses 0.03-5.0 mg): 2.5 mg | safety and tolerability (healthy subjects; single-dose and multi-dose escalation studies in healthy populations): good safety and tolerability | solubility [2]: ≥ 10000 µg/mL | SAEs [3]: no SAEs | acute pancreatitis [3]: no acute pancreatitis | discontinuation or withdrawal due to AEs [3]: no discontinuation or withdrawal due to AEs | dose escalation termination-related AEs [3]: no dose escalation termination-related AEs | hypoglycemia events [3]: no hypoglycemia events | severe adverse events [3]: no severe adverse events | patients with mild urticaria ([3]; cohort 1 (1 mg-2 mg-3 mg)): 2 patients | overall safety and tolerance ([3]; sc once weekly, 12 weeks): good overall safety and tolerance | anorexia rate of occurrence ([3]; treatment group): 29.2% | diarrhea rate of occurrence ([3]; treatment group): 25% | nausea rate of occurrence ([3]; treatment group): 16.7% | Gastrointestinal adverse events rate ([3]; treatment group, 15/24 cases): 62.5% | average heart rate ([3]; versus placebo group): increase in average heart rate over the placebo group | acute pancreatitis, severe hypoglycemia, allergic reaction or injection site reaction (patients with diabetes): no acute pancreatitis, severe hypoglycemia, allergic reaction or injection site reaction | dose escalation termination-related AEs (patients with diabetes): no dose escalation termination-related AEs | overall safety and tolerance (patients with diabetes; sc once weekly, 12 weeks): good overall safety and tolerance
